The target of this series is ATP-dependent translocase ABCB1 (Homo sapiens, UniProt P08183). As to the kind of experiment: TP_TRANSPORTER: transepithelial transport (basal to apical) in MDR1-expressing LLC-PK1 cells. The series is classed as functional, cell-based. The conditions noted are these: pig.

SMILES strings stand for the structures.

In ChEMBL document CHEMBL2073883, “Interaction of docetaxel ("Taxotere") with human P-glycoprotein” (Jpn J Cancer Res, 1999) one finds Activity data, which are given here for one compound.

Sequence of ATP-dependent translocase ABCB1 (P08183 whole entry): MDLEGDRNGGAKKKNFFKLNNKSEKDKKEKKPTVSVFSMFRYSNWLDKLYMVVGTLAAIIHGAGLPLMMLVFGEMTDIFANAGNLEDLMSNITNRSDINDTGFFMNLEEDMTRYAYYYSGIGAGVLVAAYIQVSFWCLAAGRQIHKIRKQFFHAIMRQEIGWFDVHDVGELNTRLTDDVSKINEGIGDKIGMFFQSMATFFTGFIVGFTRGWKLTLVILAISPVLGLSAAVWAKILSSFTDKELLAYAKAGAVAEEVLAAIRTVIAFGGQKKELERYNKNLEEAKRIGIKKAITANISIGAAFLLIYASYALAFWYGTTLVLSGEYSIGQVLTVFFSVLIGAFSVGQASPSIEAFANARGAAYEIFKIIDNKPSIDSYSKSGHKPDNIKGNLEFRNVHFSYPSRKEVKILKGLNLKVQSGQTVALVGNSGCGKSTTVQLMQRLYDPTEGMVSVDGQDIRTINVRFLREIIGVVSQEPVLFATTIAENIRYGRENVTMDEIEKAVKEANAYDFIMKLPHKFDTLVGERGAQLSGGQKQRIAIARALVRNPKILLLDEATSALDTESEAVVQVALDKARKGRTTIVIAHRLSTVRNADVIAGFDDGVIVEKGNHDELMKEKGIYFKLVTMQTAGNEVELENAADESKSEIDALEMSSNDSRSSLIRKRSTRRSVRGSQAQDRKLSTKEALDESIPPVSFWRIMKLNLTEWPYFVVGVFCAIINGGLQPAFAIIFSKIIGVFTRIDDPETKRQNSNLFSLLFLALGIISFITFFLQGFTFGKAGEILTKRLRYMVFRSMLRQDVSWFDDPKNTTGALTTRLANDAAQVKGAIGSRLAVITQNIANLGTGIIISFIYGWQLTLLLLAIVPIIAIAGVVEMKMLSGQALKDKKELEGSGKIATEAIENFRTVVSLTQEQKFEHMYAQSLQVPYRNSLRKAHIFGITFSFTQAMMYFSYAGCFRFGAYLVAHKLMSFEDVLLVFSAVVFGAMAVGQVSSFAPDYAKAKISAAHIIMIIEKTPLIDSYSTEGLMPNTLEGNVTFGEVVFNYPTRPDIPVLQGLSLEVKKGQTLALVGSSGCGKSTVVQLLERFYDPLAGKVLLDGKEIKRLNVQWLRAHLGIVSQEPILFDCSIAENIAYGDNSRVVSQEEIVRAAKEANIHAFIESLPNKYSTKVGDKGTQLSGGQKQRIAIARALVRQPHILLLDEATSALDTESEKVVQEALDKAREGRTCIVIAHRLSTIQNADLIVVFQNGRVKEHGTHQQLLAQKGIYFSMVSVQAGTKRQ

As to `CC(=O)O[C@@]12CO[C@@H]1C[C@H](O)[C@@]1(C)C(=O)[C@H](O)C3=C(C)[C@@H](OC(=O)[C@H](O)[C@@H](NC(=O)OC(C)(C)C)c4ccccc4)C[C@@](O)([C@@H](OC(=O)c4ccccc4)[C@H]21)C3(C)C.O.O.O` [DOCETAXEL], the Activity result is “substrate [+]”.
